Calls of active or inactive are those of the source. The rule behind the calls is not given here.
What was measured:
A549 = test: Induction of apoptosis in human A549 cells grown under 3D anchorage-independent soft-agar conditions at grown under 3D anchorage-independent soft-agar conditions assessed as induction of PARP cleavage at 1 uM in presence of 10 nM of paclitaxel incubated for 24 to 48 hrs by mesoscale assay; assay type: functional, cell-based
NCI-H358 [1] = test: Induction of apoptosis in human NCI-H358 cells grown under 3D anchorage-independent soft-agar conditions at grown under 3D anchorage-independent soft-agar conditions assessed as induction of PARP cleavage at 1 uM in presence of 125 nM of afatinib incubated for 24 hrs by mesoscale assay; assay type: functional, cell-based
NCI-H358 [2] = test: Induction of apoptosis in human NCI-H358 cells grown under 3D anchorage-independent soft-agar conditions at grown under 3D anchorage-independent soft-agar conditions assessed as induction of PARP cleavage at 1 uM incubated for 24 to 72 hrs by mesoscale assay; assay type: functional, cell-based
MIA PaCa-2 [3] = conditions: Homo sapiens, 50 mg/kg
Description: Antitumor activity against human MIAPaCa2 cells grown under 3D anchorage-independent soft-agar conditions at xenografted in BomTacNMRI-Foxn1 nu mouse assessed as inhibition of tumor regression at 50 mg/kg, po BID relative to control

NCI-H358 [4] = test: Growth inhibition of human NCI-H358 cells grown under 3D anchorage-independent soft-agar conditions at 1000 nM incubated for 14 days by alamar blue dye based assay relative to control; assay type: functional; conditions: NCI-H358, 336 h, read-out: GI
NCI-H1792 [5] = test: Growth inhibition of human NCI-H1792 cells grown under 3D anchorage-independent soft-agar conditions at 1000 nM incubated for 14 days by alamar blue dye based assay relative to control; assay type: functional; conditions: NCI-H1792, 336 h, read-out: GI
NCI-H358 [6] = test: Growth inhibition of human NCI-H358 cells grown under 3D anchorage-independent soft-agar conditions at 37 nM incubated for 14 days by alamar blue dye based assay relative to control; assay type: functional; conditions: NCI-H358, 336 h, read-out: GI
NCI-H1792 [7] = test: Growth inhibition of human NCI-H1792 cells grown under 3D anchorage-independent soft-agar conditions at 111 nM incubated for 14 days by alamar blue dye based assay relative to control; assay type: functional; conditions: NCI-H1792, 336 h, read-out: GI
NCI-H1792 [8] = test: Growth inhibition of human NCI-H1792 cells grown under 3D anchorage-independent soft-agar conditions at 37 nM incubated for 14 days by alamar blue dye based assay relative to control; assay type: functional; conditions: NCI-H1792, 336 h, read-out: GI
NCI-H358 [9] = test: Growth inhibition of human NCI-H358 cells grown under 3D anchorage-independent soft-agar conditions at 111 nM incubated for 14 days by alamar blue dye based assay relative to control; assay type: functional; conditions: NCI-H358, 336 h, read-out: GI
NCI-H1792 [10] = test: Growth inhibition of human NCI-H1792 cells grown under 3D anchorage-independent soft-agar conditions at 12.3 nM incubated for 14 days by alamar blue dye based assay relative to control; assay type: functional; conditions: NCI-H1792, 336 h, read-out: GI
NCI-H358 [11] = test: Growth inhibition of human NCI-H358 cells grown under 3D anchorage-independent soft-agar conditions at 12.3 nM incubated for 14 days by alamar blue dye based assay relative to control; assay type: functional; conditions: NCI-H358, 336 h, read-out: GI
NCI-H1792 [12] = test: Growth inhibition of human NCI-H1792 cells grown under 3D anchorage-independent soft-agar conditions at 333 nM incubated for 14 days by alamar blue dye based assay relative to control; assay type: functional; conditions: NCI-H1792, 336 h, read-out: GI
NCI-H358 [13] = test: Growth inhibition of human NCI-H358 cells grown under 3D anchorage-independent soft-agar conditions at 333 nM incubated for 14 days by alamar blue dye based assay relative to control; assay type: functional; conditions: NCI-H358, 336 h, read-out: GI
MIA PaCa-2 [14] = test: Antitumor activity against human MIAPaCa2 cells grown under 3D anchorage-independent soft-agar conditions at xenografted in BomTacNMRI-Foxn1 nu mouse assessed as inhibition of tumor regression at 0.125 mg/kg, po BID relative to control; assay type: functional, organism-based
[15] = molecular target: T1, Mitogen-activated protein kinase; ERK1/ERK2 (Homo sapiens) (UniProt P27361+P28482); test: Inhibition of ERK1/2 phosphorylation in human MIAPaCa2 cells grown under 3D anchorage-independent soft-agar conditions at assessed as increase in MEK1/2 phosphorylation at Ser 217/221 residues at 25 nM incubated for 2 to 8 hrs by Western blotting analysis; assay type: cell-based
T1 sequence (P27361 whole entry, looked up): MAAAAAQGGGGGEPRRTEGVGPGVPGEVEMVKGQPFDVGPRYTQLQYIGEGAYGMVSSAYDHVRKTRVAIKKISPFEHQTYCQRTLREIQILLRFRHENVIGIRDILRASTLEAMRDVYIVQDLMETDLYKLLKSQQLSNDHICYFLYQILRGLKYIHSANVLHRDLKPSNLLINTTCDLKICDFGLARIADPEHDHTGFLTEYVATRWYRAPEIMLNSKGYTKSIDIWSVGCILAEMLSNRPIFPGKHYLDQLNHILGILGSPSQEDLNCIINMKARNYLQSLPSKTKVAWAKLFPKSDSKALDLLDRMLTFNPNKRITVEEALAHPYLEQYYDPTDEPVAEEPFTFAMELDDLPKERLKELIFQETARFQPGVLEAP
T1 sequence (P28482 whole entry, looked up): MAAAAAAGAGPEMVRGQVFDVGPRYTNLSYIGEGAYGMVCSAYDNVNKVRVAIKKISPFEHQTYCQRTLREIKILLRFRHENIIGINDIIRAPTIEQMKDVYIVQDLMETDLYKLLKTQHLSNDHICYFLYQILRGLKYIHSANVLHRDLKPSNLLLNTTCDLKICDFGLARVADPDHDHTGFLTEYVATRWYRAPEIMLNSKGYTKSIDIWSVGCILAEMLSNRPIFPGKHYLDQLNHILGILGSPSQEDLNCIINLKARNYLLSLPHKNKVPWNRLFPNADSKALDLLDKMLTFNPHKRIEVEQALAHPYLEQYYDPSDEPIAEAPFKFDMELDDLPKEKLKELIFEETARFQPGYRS

MIA PaCa-2 [16] = test: Antitumor activity against human MIAPaCa2 cells grown under 3D anchorage-independent soft-agar conditions at xenografted in BomTacNMRI-Foxn1 nu mouse assessed as inhibition of tumor regression at 0.05 mg/kg, po BID relative to control; assay type: functional, organism-based
[17] = molecular target: T1, Mitogen-activated protein kinase; ERK1/ERK2 (Homo sapiens); test: Inhibition of ERK1/2 phosphorylation at Thr202/Tyr204 residues in human MIAPaCa2 cells grown under 3D anchorage-independent soft-agar conditions at 50 nM incubated for 2 to 8 hrs by Western blotting analysis relative to control; assay type: cell-based
NCI-H358 [18] = test: Induction of apoptosis in human NCI-H358 cells grown under 3D anchorage-independent soft-agar conditions at grown under 3D anchorage-independent soft-agar conditions assessed as induction of PARP cleavage at 125 nM incubated for 48 hrs by mesoscale assay; assay type: functional, cell-based

For `COc1cc2nc(C)nc(N[C@H](C)c3cc(N)cc(C(F)(F)F)c3)c2cc1O[C@H]1CCOC1`, the Activity (A549) was “Active”, the Activity (NCI-H358 [1]) was “Active” and the Activity (NCI-H358 [2]) was “inactive”. For the same compound, the inhibition (MIA PaCa-2 [3]) was “inactive”.
For `C=CC(=O)N1CCN(c2ncnc3c(F)c(-c4cc(O)cc5ccccc45)c(Cl)cc23)CC1`, the inhibition of growth at 1 µM (NCI-H358 [4]) was 180%, the inhibition of growth at 1 µM (NCI-H1792 [5]) was 81% and the inhibition of growth at 0.037 µM (NCI-H358 [6]) was 47%. For the same compound, the inhibition of growth at 0.111 µM (NCI-H1792 [7]) was 42%, the inhibition of growth at 0.037 µM (NCI-H1792 [8]) was 29% and the inhibition of growth at 0.111 µM (NCI-H358 [9]) was 87%. For the same compound, the inhibition of growth at 0.0123 µM (NCI-H1792 [10]) was 5%, the inhibition of growth at 0.0123 µM (NCI-H358 [11]) was 17% and the inhibition of growth at 0.333 µM (NCI-H1792 [12]) was 46%. For the same compound, the inhibition of growth at 0.333 µM (NCI-H358 [13]) was 139%.
For `CC(=O)Nc1cccc(-n2c(=O)n(C3CC3)c(=O)c3c(Nc4ccc(I)cc4F)n(C)c(=O)c(C)c32)c1`, the inhibition (MIA PaCa-2 [14]) was “inactive”, the inhibition [15] was “Active” and the inhibition (MIA PaCa-2 [16]) was “inactive”. For the same compound, the inhibition [17] was 65 to 75%.
For `CN(C)C/C=C/C(=O)Nc1cc2c(Nc3ccc(F)c(Cl)c3)ncnc2cc1O[C@H]1CCOC1`, the Activity (NCI-H358 [18]) was “Active”.
